ChEMBL document CHEMBL1141757, “Structural revision of aspernigrin A, reisolated from Cladosporium herbarum IFB-E002” (J Nat Prod, 2005)
pIC50: −log10 of the molar value.

How the values were obtained:
[1] = target: Xanthine dehydrogenase/oxidase (Homo sapiens, UniProt P47989); experiment: Inhibition of xanthine oxidase
[2] = Cytotoxicity against human SW1116 cells; format: functional, cell-based; details: SW 1116

Xanthine dehydrogenase/oxidase, sequence (P47989 whole entry): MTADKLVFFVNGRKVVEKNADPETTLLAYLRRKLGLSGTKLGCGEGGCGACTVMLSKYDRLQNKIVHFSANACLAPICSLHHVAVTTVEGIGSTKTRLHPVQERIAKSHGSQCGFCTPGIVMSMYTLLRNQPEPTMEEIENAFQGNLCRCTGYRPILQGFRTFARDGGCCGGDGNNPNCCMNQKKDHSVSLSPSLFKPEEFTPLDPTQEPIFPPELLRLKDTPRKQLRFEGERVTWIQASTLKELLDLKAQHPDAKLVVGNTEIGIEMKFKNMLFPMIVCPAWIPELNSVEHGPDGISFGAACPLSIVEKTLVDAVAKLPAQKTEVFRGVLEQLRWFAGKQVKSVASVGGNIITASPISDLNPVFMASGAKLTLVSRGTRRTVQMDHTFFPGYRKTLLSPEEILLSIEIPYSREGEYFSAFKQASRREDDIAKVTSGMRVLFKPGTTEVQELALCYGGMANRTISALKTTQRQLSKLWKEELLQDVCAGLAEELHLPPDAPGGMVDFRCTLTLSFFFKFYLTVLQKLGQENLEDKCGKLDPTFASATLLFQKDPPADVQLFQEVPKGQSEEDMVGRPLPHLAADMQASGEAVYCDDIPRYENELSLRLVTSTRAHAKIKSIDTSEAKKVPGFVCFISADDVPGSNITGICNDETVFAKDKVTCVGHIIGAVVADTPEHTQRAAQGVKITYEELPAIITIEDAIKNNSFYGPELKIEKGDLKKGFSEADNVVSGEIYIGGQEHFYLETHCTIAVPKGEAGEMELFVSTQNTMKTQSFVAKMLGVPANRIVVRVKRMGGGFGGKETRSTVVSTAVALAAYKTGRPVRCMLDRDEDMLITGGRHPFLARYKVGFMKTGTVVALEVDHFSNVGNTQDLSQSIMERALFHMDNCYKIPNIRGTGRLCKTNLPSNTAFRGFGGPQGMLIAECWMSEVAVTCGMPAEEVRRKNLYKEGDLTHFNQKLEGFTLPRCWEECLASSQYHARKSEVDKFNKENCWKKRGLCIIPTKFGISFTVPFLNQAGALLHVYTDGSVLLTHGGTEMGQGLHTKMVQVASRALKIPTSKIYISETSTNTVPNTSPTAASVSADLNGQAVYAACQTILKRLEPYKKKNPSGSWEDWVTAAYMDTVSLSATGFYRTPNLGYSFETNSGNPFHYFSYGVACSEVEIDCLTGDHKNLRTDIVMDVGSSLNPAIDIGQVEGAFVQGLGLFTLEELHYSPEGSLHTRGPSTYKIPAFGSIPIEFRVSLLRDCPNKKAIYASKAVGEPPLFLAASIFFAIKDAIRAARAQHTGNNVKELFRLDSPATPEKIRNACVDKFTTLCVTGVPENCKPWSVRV

SMILES	pIC50 [1]	pIC50 [2]
COc1cc(OC)c2c(O)c3c(=O)cc(C)oc3c(-c3c(OC)cc4cc(O)c5c(=O)cc(C)oc5c4c3OC)c2c1 [FONSECINONE A]	4.71	–
COc1cc(OC)c2c(O)c3c(=O)cc(C)oc3cc2c1 [RUBROFUSARIN B]	4.77	4.80
